Results published in PubChem BioAssay AID624167 (Sanford-Burnham Center for Chemical Genomics, 2012).
The source made the active and inactive calls.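 How the source made its calls: active means mean IC50 for reducing PEG3 promoter reporter signal at or below a set limit, with IC50 above the limit in both counter screens; inactive means the rest, including counter screen hits.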

How the values were obtained:
PEG-3 [1] = target: PEG-3 (UniProt Q6IN02); experiment: Peg3 promoter luciferase inhibitors, potency, dose response, cell-based, HeLa, CREF/GAPDH counter-screen panel (AID 624167); conditions: HeLa PEG-Prom luciferase reporter, overnight, CREF/GAPDH counter-screens, mean of runs
Sequence of PEG-3 (UniProt Q6IN02) (Q6IN02 whole entry, looked up): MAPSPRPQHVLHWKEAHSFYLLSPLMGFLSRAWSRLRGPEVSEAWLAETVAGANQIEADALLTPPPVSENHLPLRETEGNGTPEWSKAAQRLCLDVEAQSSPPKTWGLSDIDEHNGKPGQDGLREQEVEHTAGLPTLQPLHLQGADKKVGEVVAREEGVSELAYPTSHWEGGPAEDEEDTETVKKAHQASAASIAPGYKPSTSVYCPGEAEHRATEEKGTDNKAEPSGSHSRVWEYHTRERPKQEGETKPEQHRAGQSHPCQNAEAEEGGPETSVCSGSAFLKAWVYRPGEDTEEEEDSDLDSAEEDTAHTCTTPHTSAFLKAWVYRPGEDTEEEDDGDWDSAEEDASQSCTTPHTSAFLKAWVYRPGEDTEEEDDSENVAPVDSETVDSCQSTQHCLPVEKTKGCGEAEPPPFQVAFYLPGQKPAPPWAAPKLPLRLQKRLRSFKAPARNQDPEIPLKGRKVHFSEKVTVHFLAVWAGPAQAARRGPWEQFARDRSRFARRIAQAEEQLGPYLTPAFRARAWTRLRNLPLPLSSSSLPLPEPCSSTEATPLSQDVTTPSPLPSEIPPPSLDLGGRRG

PEG-3 [2] = experiment: as above; conditions: HeLa PEG-Prom luciferase reporter, overnight, CREF/GAPDH counter-screens
[3] = run 1, dose range 1, individual replicate IC50 per panel
[4] = run 2, dose range 1, individual replicate IC50 per panel

Row | Compound | IC50 (PEG-3 [1]) | IC50 (PEG-3 [2]; [3]) | IC50 (PEG-3 [2]; [4])
1 | CC1(C)CC(NC(=O)c2cccc(S(=O)(=O)N(Cc3ccccc3)c3ccccc3)c2)CC(C)(C)N1 | 18.8 µM | 18.6 µM | 18.9 µM
2 | O=C1/C(=C\c2cccc(O)c2O)SC(=S)N1Cc1ccccc1 | inactive | 14.1 µM | 30.1 µM
3 | Oc1[nH]c2ccc(Br)cc2c1N=NC(=S)Nc1ccc(F)cc1 | 19.3 µM | 10.5 µM | 28.1 µM
4 | COCCn1c(C)cc(C2=NNC(=NC3CC3)SC2)c1C | 0.76 µM | 1.32 µM | < 0.2 µM
5 | CN(C)CCNc1ncnc2c1ncn2[C@H]1CN(Cc2ccc(-c3ccccc3)cc2)C[C@@H](CO)O1 | inactive | 30.7 µM | 17.4 µM
6 | CC(C(=O)NC1CCCC1)N(C(=O)Cn1nnc(-c2ccc(F)cc2)n1)c1ccccc1F (stereo not drawn) | inactive | 22.9 µM | 69.9 µM
7 | CS(=O)(=O)c1ccc2nc(NC(=O)CCS(=O)(=O)c3ccccc3)sc2c1 | inactive | > 100 µM | 18.9 µM
8 | CC(C)c1ccc(NC(=O)Nc2nc(C(C)N)cs2)cc1 (stereo not drawn) | 17 µM | 20.1 µM | 13.8 µM
9 | Cc1cc(C)c2nc(N(CCCN(C)C)C(=O)c3ccc(S(=O)(=O)N4CCCCCC4)cc3)sc2c1 | 20 µM | 24.3 µM | 15.6 µM
10 | CCCC(=O)NC(c1cccc([N+](=O)[O-])c1)c1ccc2cccnc2c1O (stereo not drawn) | 11.1 µM | 3.15 µM | 19 µM
11 | COc1cc(/C=C/c2ccc3cccc(O)c3n2)ccc1O | > 100 µM (inactive) | > 100 µM | > 100 µM
12 | COc1cc(/C=C2\SC(=S)N(CCC(=O)N3CCCCC3)C2=O)cc(OC)c1OC | inactive | 35.1 µM | 19.1 µM
13 | O=C(O)c1ccc(N/N=C/c2ccc(OC(=O)c3ccccc3Cl)cc2)cc1 | inactive | 3.06 µM | 78.5 µM
14 | O=C(Cn1ncc(Cl)c(Cl)c1=O)N1CCN(Cc2ccccc2)CC1 | 14 µM | 19.5 µM | 8.48 µM
15 | CC1(C)CC(NCCN2CCN(C3=CC(=C(C#N)C#N)CC(C)(C)C3)CC2)=CC(=C(C#N)C#N)C1 | inactive | > 100 µM | 8.4 µM
16 | Cc1ccc2nc(N(CCCN(C)C)C(=O)c3ccc4c(c3)CCCC4)sc2c1 | 19.8 µM | 22 µM | 17.6 µM
17 | Cc1ccc(CC2(OCCN(C)C)CCC(C(C)(C)C)CC2)cc1 (stereo not drawn) | 16.8 µM | 19.1 µM | 14.6 µM
18 | CCOC(=O)c1ccc(NC(=O)C2CCCN(S(=O)(=O)c3ccc(F)cc3)C2)cc1 (stereo not drawn) | inactive | 20.9 µM | 43.1 µM
19 | CC(C)(C)OC(=O)CC(S(=O)(=O)c1ccccc1)S(=O)(=O)c1ccccc1 | 14.3 µM | 21 µM | 7.58 µM
20 | Cc1ccccc1CN1Cc2cnnn2-c2ccccc2C1C#N (stereo not drawn) | 13.9 µM | 15.6 µM | 12.1 µM
21 | CCOC(=O)/C(=C\c1ccccc1)C(=O)CCN1CCOCC1 | 13.3 µM | 16.6 µM | 9.98 µM
22 | CC(NC(=O)c1ccc([N+](=O)[O-])o1)C12CC3CC(CC(C3)C1)C2 (stereo not drawn) | inactive | 32.3 µM | 14.9 µM

Row | Compound | IC50 (PEG-3 [1]) | IC50 (PEG-3 [2]; [3]) | IC50 (PEG-3 [2]; [4])
23 | COc1ccc(-c2cc(C(=O)N(C)Cc3cccc(OC)c3OC)c3ccccc3n2)cc1OC | inactive | 12.7 µM | 71.2 µM
24 | Cc1ccc(Cn2c(=N)n(CC(=O)c3ccccc3)c3ccccc32)cc1 | 16.5 µM | 15.4 µM | 17.6 µM
25 | CC1(C)CC(NC(=O)c2sc3cc(Cl)ccc3c2Cl)CC(C)(C)N1 | 18.1 µM | 20.7 µM | 15.6 µM
26 | O=[N+]([O-])c1ccc(-c2nc(Nc3cccc(O)c3)c3ccccc3n2)cc1 | 12.9 µM | 13.4 µM | 12.5 µM
27 | COc1cccc(/C=N/Nc2cc(C)nc(-c3ccccc3O)n2)c1O | 13 µM | 12.5 µM | 13.6 µM
28 | COc1ccc(-c2ccc3[nH]c4c(c3c2)CCN2C[C@@H]([C@H](C)O)[C@@H](N(C)C(=O)Nc3cc(Cl)cc(Cl)c3)C[C@@H]42)cc1 | inactive | 43.8 µM | 30.8 µM
29 | OCCN1CCN(C2CCC(c3ccc(F)cc3)c3ccc(F)cc32)CC1 (stereo not drawn) | inactive | 20.4 µM | 23 µM
30 | CCCN1CCc2c(sc(NC(=O)c3ccc(S(=O)(=O)N4CCN(C(=O)OCC)CC4)cc3)c2C(N)=O)C1 | inactive | 21.9 µM | 21.2 µM
31 | CCN(CC)C(=O)c1ccc(NC(=O)Nc2ccccc2F)cc1 | 17.2 µM | 18.8 µM | 15.6 µM
32 | COc1cc(OC)c(OC)cc1CCC(C)NCCC(c1ccccc1)c1ccccc1 (stereo not drawn) | 18.4 µM | 20.3 µM | 16.5 µM
33 | O=[N+]([O-])c1cc(F)c(N2CCCCCC2)cc1N1CCNCC1 | 15.7 µM | 18.9 µM | 12.5 µM
34 | CN(CC(=O)Nc1ccc(Cl)c(C(F)(F)F)c1)C(=O)c1cc(-c2ccncc2)nc2ccccc12 | 16.1 µM | 16.2 µM | 15.9 µM
35 | CCC(=C(c1ccc(OC)cc1)c1ccc(OC)cc1)c1cn(CC(O)CN2CCN(C)CC2)c2ccccc12 (stereo not drawn) | 15.7 µM | 18.9 µM | 12.5 µM
36 | COc1ccc(OC)c(Cc2cnc3nc(N)nc(N)c3c2C)c1 | inactive | 48.7 µM | 1.36 µM
37 | CCn1c(C)cc(C(=O)COC(=O)c2ccccc2[N+](=O)[O-])c1C | 18.8 µM | 35.8 µM | 1.77 µM
38 | CN(C)CCNc1ncnc2c1sc1nc(N3CCOCC3)c3c(c12)CC(C)(C)SC3 | 14.4 µM | 18.1 µM | 10.6 µM
39 | CC(=O)c1cccc(NC(=O)c2cccc3c(-c4cccnc4)coc23)c1 | inactive | 25.6 µM | > 100 µM
40 | COc1cccc(CN(C)C(=O)C(CCSC)NS(=O)(=O)c2ccc3c(c2)OCCO3)c1OC (stereo not drawn) | inactive | 61 µM | 8.89 µM
41 | COc1ccc(CC(N)c2csc(NC(=O)Nc3cc(OC)ccc3OC)n2)cc1 (stereo not drawn) | 16 µM | 16.5 µM | 15.6 µM
42 | CCCCn1nnnc1C(CCSC)N1CCC(n2c(=O)[nH]c3ccccc32)CC1 (stereo not drawn) | inactive | 34.4 µM | 70.3 µM
43 | O=C(Nc1ccc(-c2nc3ccccc3o2)cc1)c1ccc(N2CCOCC2)c([N+](=O)[O-])c1 | > 100 µM (inactive) | > 100 µM | > 100 µM
44 | c1ccc(-c2cc(-c3nc4ccccc4[nH]3)c3ccccc3n2)cc1 | inactive | 15.3 µM | 39.9 µM

Row | Compound | IC50 (PEG-3 [1]) | IC50 (PEG-3 [2]; [3]) | IC50 (PEG-3 [2]; [4])
45 | CC1=CC(O)C(O)C2(C)C1CC1OC(=O)C(O)C3C(C)C(O)C4(O)OCC13C42 (stereo not drawn) | inactive | 44.9 µM | 84.3 µM
46 | OC1(c2ccc(Cl)c(Cl)c2)C[n+]2ccccc2N1Cc1ccccc1 (stereo not drawn) | 15.1 µM | 16 µM | 14.1 µM
47 | CC1(C)Oc2cc3oc(-c4cc(O)cc(O)c4)cc3cc2CC1O (stereo not drawn) | inactive | 37.1 µM | 13.7 µM
48 | CC(C)(C)n1nnnc1C(CCc1ccccc1)N1CCC(n2c(=O)[nH]c3ccccc32)CC1 (stereo not drawn) | inactive | 18.3 µM | 24.7 µM
49 | CC1CCCCN1S(=O)(=O)c1ccc(C(=O)N(CCCN(C)C)c2nc3ccc(Br)cc3s2)cc1 (stereo not drawn) | 15 µM | 19.1 µM | 10.9 µM
50 | Cc1ccc2sc(N(CCCN(C)C)C(=O)c3ccc(S(=O)(=O)N4CCc5ccccc5C4)cc3)nc2c1C | 17.4 µM | 15.6 µM | 19.2 µM
51 | CCC(C)Sc1ccc(-c2nc3ccccn3c2NCc2ccccc2)cc1OC (stereo not drawn) | inactive | 38.3 µM | 20.2 µM
52 | CC(=O)N1CCN(c2cc(-c3ccccc3)nc3cc(-c4cccc(Cl)c4)nn23)CC1 | inactive | 23.8 µM | 18.3 µM
53 | CN(C)CCNc1ncnc2c1sc1nc(N3CCCC3)c3c(c12)CC(C)(C)OC3 | inactive | 32.7 µM | 13.1 µM
54 | O=S(=O)(Nc1cccc2cccnc12)c1ccccc1 | inactive | > 100 µM | 7.43 µM
55 | O=C1NC(=O)N(Cc2ccccc2)C(=O)/C1=C\C=C\c1ccco1 | 13.5 µM | 15.1 µM | 12 µM
56 | CCN1CCN(CCNC(=O)c2ccc(/C=C3\Sc4ccccc4N(Cc4ccccc4F)C3=O)cc2)CC1 | 14.9 µM | 20.2 µM | 9.63 µM
57 | CCCCCCCCCC[N+](C)(C)CC/C=C1/c2ccccc2Sc2ccc(Cl)cc21 | 11.7 µM | 14.9 µM | 8.43 µM
58 | CCC(=O)NC(c1cccs1)c1cc([N+](=O)[O-])c2cccnc2c1O (stereo not drawn) | 12.1 µM | 12.4 µM | 11.7 µM
59 | COc1cc2c(cc1OC)CN(c1nc(-c3cccnc3)nc3ccccc13)CC2 | inactive | 31.3 µM | 63.8 µM
60 | CNCC(O)c1cc(OCc2ccccc2)c(OCc2ccccc2)cc1F (stereo not drawn) | 18.5 µM | 20.8 µM | 16.3 µM
61 | CNCC[C@@H](Oc1ccc(C(F)(F)F)cc1)c1ccccc1 | inactive | 27 µM | 53.2 µM
62 | C[C@@H](C(=O)Nc1ccc2c(c1)OCCO2)n1c(=O)[nH]c2ccccc2c1=O | inactive | 11.8 µM | > 100 µM
63 | O=C(Nc1cccc(-c2cccc(Cl)c2)c1)C1CCN(C2CCC2)CC1 | 16.9 µM | 18.9 µM | 14.9 µM
64 | CCc1nccn1C(=O)c1cnn2c(C(F)F)cc(-c3ccc(C)cc3)nc12 | 17.2 µM | 18.7 µM | 15.6 µM
65 | O=c1[nH]c(=O)n(C2OC(CO)C(O)C2O)cc1F (stereo not drawn) | 14.3 µM | 25.6 µM | 3.07 µM
66 | NC(N)=N/N=C/c1cccc(Cl)c1Cl | 16 µM | 17.4 µM | 14.5 µM
